Consider 19 compounds from patent publication US11919901B2 (Syndax Pharmaceuticals, Inc., priority 2021, dated 2024).

The subject of the assay is MV4-11 cells. The assay can be described thus: Cell proliferation assay MV4;11 (CellTiter-Glo, 72 hours). It is filed as cell-based. Particulars: Homo sapiens; MV4;11 leukemia cell line, 72 hours; read-out: MV4; 11 IC50. The procedure: Compounds were evaluated for its capacity to inhibit the proliferation of the MLLr leukemia cell line MV4-11 that harbors an MLL1-AF4 fusion protein. MV4-11 cells were cultured for 72 hours with limiting dilutions of compounds and viability was measured using CellTiter-Glo.
Compounds were dissolved to obtain as 10 mM solution in DMSO. The stock was diluted 1:5 to the top concentration of 2 mM in 100% DMSO. For IC50 determination, serial 1:3.16 dilutions were prepared in 100% DMSO by diluting 20 μL into 43.5 μL of DMSO for 8 concentrations. Each prepared DMSO solution were further diluted 1:500 in the cell culture media to obtain the 2× dosing solutions. The final concentrations of tested compounds in the cell culture media ranged from 0.632 nM to 2000 nM.
MV4-11 cells were cultured in IMDM with 10% FBS and 1× Penicillin-Streptomycin at 5% CO2 and 37° C. A cell suspension was prepared containing 15,000 cells/ml in the culture medium and 100 μL of this suspension was added per well to a 96-well cell culture plate. Then, 100 μL of 2× dosing media containing test compounds were added bringing the total volume to 200 μL. These cells were cultured for 72 hours at 37° C. and 5% CO2 in a humidified incubator.
After 72 hours, the cultured cells were mixed and 100p L was transferred to a 96-well black plate. Cell Titer Glo (100 μl) was then added to this plate. The plate was mixed with shaking for 15 mins at RT, the luminescence was then measured using Tecan Spark 20M spectrophotometer. Cell Viability (%) was determined by RLU of test/RLU average vehicle control*100 and % max inhibition was determined by 100−(% cell viability remaining at the top concentration of compound).
In general terms: In ATP-based viability assays light output follows the ATP content of the culture.

Turning to `CCN(C(=O)c1cc(F)ccc1Oc1cncnc1N1CC2(CCN(C[C@@H]3CC[C@@H](NS(=O)(=O)N(C)C)CO3)CC2)C1)C(C)C` [Example 49, 2-((4-(7-(((2S,5R)-5-((N,N-Dimethylsulfamoyl)amino)tetrahydro-2H-pyran-2-yl)methyl)-2,7-diazaspiro[3.5]nonan-2-yl)pyrimidin-5-yl)oxy)-N-ethyl-5-fluoro-N-isopropylbenzamide], the IC50 was less than 100 nM.

On to `C[C@@H]1COC[C@@H](C)N1C(=O)c1cc(F)ccc1Oc1cncnc1N1CC2(CCN(C[C@@H]3CC[C@@H](NS(=O)(=O)C4COC4)CO3)CC2)C1` [Example 32, N-((3R,6S)-6-((2-(5-(2-((3R,5R)-3,5-Dimethylmorpholine-4-carbonyl)-4-fluorophenoxy)pyrimidin-4-yl)-2,7-diazaspiro[3.5]nonan-7-yl)methyl)tetrahydro-2H-pyran-3-yl)oxetane-3-sulfonamide], for which the IC50 lay within 100 to 1000 nM.

On to `CC(C)N(C)C(=O)c1cc(F)ccc1Oc1cncnc1N1CC2(CCN(C[C@@H]3CC[C@@H](NS(=O)(=O)N(C)C)CO3)CC2)C1` [Example 137, 2-((4-(7-(((2S,5R)-5-((N,N-Dimethylsulfamoyl)amino)tetrahydro-2H-pyran-2-yl)methyl)-2,7-diazaspiro[3.5]nonan-2-yl)pyrimidin-5-yl)oxy)-5-fluoro-N-isopropyl-N-methylbenzamide], for which the IC50 is less than 100 nM.

For the compound `CC(C)N(CC(F)(F)F)C(=O)c1cc(F)ccc1Oc1nncnc1N1CC2(CCN(C[C@H]3CC[C@H](NS(=O)(=O)N4CCC4)CO3)CC2)C1` (stereo in doubt) [Example 194, 2-((5-(7-(((2R,5S)-5-(Azetidine-1-sulfonamido)tetrahydro-2H-pyran-2-yl)methyl)-2,7-diazaspiro[3.5]nonan-2-yl)-1,2,4-triazin-6-yl)oxy)-5-fluoro-N-isopropyl-N-(2,2,2-trifluoroethyl)benzamide], the IC50 was less than 100 nM.

With `CC(C)N(CC#N)C(=O)c1cc(F)ccc1Oc1cncnc1N1CC2(CCN(C[C@@H]3CC[C@@H](NS(=O)(=O)N4CCC4)CO3)CC2)C1` [Example 182, 2-((4-(7-(((2S,5R)-5-(Azetidine-1-sulfonamido)tetrahydro-2H-pyran-2-yl)methyl)-2,7-diazaspiro[3.5]nonan-2-yl)pyrimidin-5-yl)oxy)-N-(cyanomethyl)-5-fluoro-N-isopropylbenzamide], the IC50 is less than 100 nM.

Consider `CCN(C)S(=O)(=O)N[C@@H]1CC[C@@H](CN2CCC3(CC2)CN(c2ncncc2Oc2ccc(F)cc2C(=O)N(C(C)C)[C@@H]2CCOC2)C3)OC1` [Example 170, 2-((4-(7-(((2S,5R)-5-((N-Ethyl-N-methylsulfamoyl)amino)tetrahydro-2H-pyran-2-yl)methyl)-2,7-diazaspiro[3.5]nonan-2-yl)pyrimidin-5-yl)oxy)-5-fluoro-N-isopropyl-N-((R)-tetrahydrofuran-3-yl)benzamide], for which the IC50 is less than 100 nM.

For `CCN(C(=O)c1cc(F)ccc1Oc1cncnc1N1CC2(CCN(C[C@@H]3CC[C@@H](NS(=O)(=O)c4ccc(OC)cc4)CO3)CC2)C1)C(C)C` [Example 62, N-Ethyl-5-fluoro-N-isopropyl-2-((4-(7-(((2S,5R)-5-((4-methoxyphenyl)sulfonamido)tetrahydro-2H-pyran-2-yl)methyl)-2,7-diazaspiro[3.5]nonan-2-yl)pyrimidin-5-yl)oxy)benzamide], the IC50 is less than 100 nM.

Take `CC(C)N(CC(F)(F)F)C(=O)c1cc(F)ccc1Oc1cncnc1N1CC2(CCN(C[C@@H]3CC[C@@H](NS(=O)(=O)C(C)C)CO3)CC2)C1` [Example 109, 5-Fluoro-N-isopropyl-2-((4-(7-(((2S,5R)-5-((1-methylethyl)sulfonamido)tetrahydro-2H-pyran-2-yl)methyl)-2,7-diazaspiro[3.5]nonan-2-yl)pyrimidin-5-yl)oxy)-N-(2,2,2-trifluoroethyl)benzamide]: the IC50 is less than 100 nM.

On to `CCS(=O)(=O)N[C@@H]1CC[C@@H](CN2CCC3(CC2)CN(c2ncncc2Oc2ccc(F)cc2C(=O)N(CCC#N)C(C)C)C3)OC1` [Example 43, N-(2-Cyanoethyl)-2-((4-(7-(((2S,5R)-5-(ethylsulfonamido)tetrahydro-2H-pyran-2-yl)methyl)-2,7-diazaspiro[3.5]nonan-2-yl)pyrimidin-5-yl)oxy)-5-fluoro-N-isopropylbenzamide], for which the IC50 was 100 to 1000 nM.

On to `CCS(=O)(=O)N[C@@H]1CC[C@@H](CN2CCC3(CC2)CN(c2ncnnc2Oc2ccc(F)cc2C(=O)N(CC(F)F)C(C)C)C3)OC1` [Example 185, N-(2,2-Difluoroethyl)-2-((5-(7-(((2S,5R)-5-(ethylsulfonamido)tetrahydro-2H-pyran-2-yl)methyl)-2,7-diazaspiro[3.5]nonan-2-yl)-1,2,4-triazin-6-yl)oxy)-5-fluoro-N-isopropylbenzamide], for which the IC50 is less than 100 nM.

In the case of `CC(C)N(C(=O)c1cc(F)ccc1Oc1cncnc1N1CC2(CCN(C[C@@H]3CC[C@@H](NS(=O)(=O)N4CCC4)CO3)CC2)C1)[C@H]1CCOC1` [Example 134, 2-((4-(7-(((2S,5R)-5-(Azetidine-1-sulfonamido)tetrahydro-2H-pyran-2-yl)methyl)-2,7-diazaspiro[3.5]nonan-2-yl)pyrimidin-5-yl)oxy)-5-fluoro-N-isopropyl-N-((S)-tetrahydrofuran-3-yl)benzamide], the IC50 is less than 100 nM.

As for `CC(C)N(CC(F)F)C(=O)c1cc(F)ccc1Oc1cncnc1N1CC2(CCN(C[C@@H]3CC[C@@H](NS(=O)(=O)N(C)C(C)C)CO3)CC2)C1` [Example 101, N-(2,2-Difluoroethyl)-5-fluoro-N-isopropyl-2-((4-(7-(((2S,5R)-5-((N-isopropyl-N-methylsulfamoyl)amino)tetrahydro-2H-pyran-2-yl)methyl)-2,7-diazaspiro[3.5]nonan-2-yl)pyrimidin-5-yl)oxy)benzamide], the IC50 is less than 100 nM.

As for `CCS(=O)(=O)N[C@@H]1CC[C@@H](CN2CCC3(CC2)CN(c2ncncc2Oc2ccc(F)cc2C(=O)N2[C@H](C)COC[C@@H]2C)C3)OC1` [Example 24, N-((3R,6S)-6-((2-(5-(2-((3S,5R)-3,5-dimethylmorpholine-4-carbonyl)-4-fluorophenoxy)pyrimidin-4-yl)-2,7-diazaspiro[3.5]nonan-7-yl)methyl)tetrahydro-2H-pyran-3-yl)ethanesulfonamide], the IC50 was less than 100 nM.

For the compound `CC(C)N(CC(F)F)C(=O)c1cc(F)ccc1Oc1cncnc1N1CC2(CCN(C[C@@H]3CC[C@@H](NS(=O)(=O)N(C)CCCO)CO3)CC2)C1` [Example 214, N-(2,2-difluoroethyl)-5-fluoro-2-((4-(7-(((2S,5R)-5-((N-(3-hydroxypropyl)-N-methylsulfamoyl)amino)tetrahydro-2H-pyran-2-yl)methyl)-2,7-diazaspiro[3.5]nonan-2-yl)pyrimidin-5-yl)oxy)-N-isopropylbenzamide], the IC50 is less than 100 nM.

`C[C@@H]1COC[C@@H](C)N1C(=O)c1cc(F)ccc1Oc1cncnc1N1CC2(CCN(C[C@@H]3CC[C@@H](NS(=O)(=O)N(C)C)CO3)CC2)C1` [Example 123, {[(3R,6S)-6-{[2-(5-{2-[(3R,5R)-3,5-Dimethylmorpholine-4-carbonyl]-4-fluorophenoxy}pyrimidin-4-yl)-2,7-diazaspiro[3.5]nonan-7-yl]methyl}oxan-3-yl]sulfamoyl}dimethylamine]: the IC50 is less than 100 nM.

Consider `CCN(C(=O)c1cc(F)ccc1Oc1cncnc1N1CC2(CCN(C[C@@H]3CC[C@@H](NS(=O)(=O)CCN(C)C)CO3)CC2)C1)C(C)C` [Example 220, 2-((4-(7-(((2S,5R)-5-((2-(Dimethylamino)ethyl)sulfonamido)tetrahydro-2H-pyran-2-yl)methyl)-2,7-diazaspiro[3.5]nonan-2-yl)pyrimidin-5-yl)oxy)-N-ethyl-5-fluoro-N-isopropylbenzamide], for which the IC50 was 100 to 1000 nM.

Take `CC(C)N(CC(F)F)C(=O)c1cc(F)ccc1Oc1nncnc1N1CC2(CCN(C[C@@H]3CC[C@@H](NS(=O)(=O)N4CCC4)CO3)CC2)C1` [Example 189, 2-((5-(7-(((2S,5R)-5-(Azetidine-1-sulfonamido)tetrahydro-2H-pyran-2-yl)methyl)-2,7-diazaspiro[3.5]nonan-2-yl)-1,2,4-triazin-6-yl)oxy)-N-(2,2-difluoroethyl)-5-fluoro-N-isopropylbenzamide]: the IC50 is less than 100 nM.

For `CCN(C(=O)c1cc(F)ccc1Oc1cncnc1N1CC2(CCN(C[C@@H]3CC[C@@H](NS(=O)(=O)c4cccc(Cl)c4)CO3)CC2)C1)C(C)C` [Example 57, 2-((4-(7-(((2S,5R)-5-((3-Chlorophenyl)sulfonamido)tetrahydro-2H-pyran-2-yl)methyl)-2,7-diazaspiro[3.5]nonan-2-yl)pyrimidin-5-yl)oxy)-N-ethyl-5-fluoro-N-isopropylbenzamide], the IC50 is less than 100 nM.

Regarding `CCNS(=O)(=O)N[C@@H]1CC[C@@H](CN2CCC3(CC2)CN(c2ncncc2Oc2ccc(F)cc2C(=O)N(CC(F)(F)F)C(C)C)C3)OC1` [Example 153, 2-((4-(7-(((2S,5R)-5-((N-Ethylsulfamoyl)amino)tetrahydro-2H-pyran-2-yl)methyl)-2,7-diazaspiro[3.5]nonan-2-yl)pyrimidin-5-yl)oxy)-5-fluoro-N-isopropyl-N-(2,2,2-trifluoroethyl)benzamide], the IC50 is less than 100 nM.
